ChEMBL document CHEMBL1201862, “PubChem BioAssay data set” (2004)
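Cells were grown in 96-well plates and exposed to each compound for 48 hours at five concentrations; endpoints were interpolated linearly between bracketing concentrations, or set to the highest concentration if not reached. Abbreviation: GI50, concentration required for 50% inhibition of growth.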 Activity calls are given as the source filed them. Rule as the data show it: active = GI50 up to about 1.1 µM and inactive = higher.

How the values were obtained:
Experiment in all cases: inhibition of tumour cell growth, NCI panel, 48 h
BT-549 = system: BT-549
HL-60 = system: HL-60
MDA-MB-231 = system: MDA-MB-231
KM12 = system: KM12
M14 = system: M14
EKVX = system: EKVX
A498 = system: A498
LOX IMVI = system: LOX IMVI
HCT-116 = system: HCT-116
OVCAR-5 = system: OVCAR-5
SK-OV-3 = system: SK-OV-3
HCT-15 = system: HCT-15
786-0 = system: 786-0
HOP-62 = system: HOP-62
RXF 393 = system: RXF 393
SF-295 = system: SF-295
NCI/ADR-RES = system: NCI/ADR-RES
IGROV-1 = system: IGROV-1
UACC-257 = system: UACC-257
CCRF-CEM = system: CCRF-CEM
SNB-75 = system: SNB-75
MCF7 = system: MCF7
MDA-MB-435 = system: MDA-MB-435
MOLT-4 = system: MOLT-4
RPMI-8226 = system: RPMI-8226
NCI-H522 = system: NCI-H522
OVCAR-4 = system: OVCAR-4
UACC-62 = system: UACC-62
OVCAR-3 = system: OVCAR-3
TK-10 = system: TK-10
SF-268 = system: SF-268
SW-620 = system: SW-620
NCI-H226 = system: NCI-H226
SNB-19 = system: SNB-19
SK-MEL-2 = system: SK-MEL-2
PC-3 = system: PC-3
MDA-N = system: MDA-N
NCI-H23 = system: NCI-H23
NCI-H460 = system: NCI-H460
SR = system: SR
SN12C = system: SN12C
ACHN = system: ACHN
Hs-578T = system: Hs-578T
OVCAR-8 = system: OVCAR-8
U-251 = system: U-251
UO-31 = system: UO-31
CAKI-1 = system: CAKI-1
Malme-3M = system: Malme-3M
SK-MEL-5 = system: SK-MEL-5
HT-29 = system: HT-29
HOP-92 = system: HOP-92
DU-145 = system: DU-145
HCC 2998 = system: HCC 2998
COLO 205 = system: COLO 205
SK-MEL-28 = system: SK-MEL-28
SF-539 = system: SF-539
A549 = system: A549
K562 = system: K562
T47D = system: T47D
KM-20L2 = system: KM-20L2
SNB-78 = system: SNB-78
HOP-18 = system: HOP-18
LXFL 529 = system: LXFL 529
DMS-273 = system: DMS-273
DLD-1 = system: DLD-1

Structure (SMILES): O=c1c2ncn(COCCCl)c2n(-c2ccccc2)c(=S)n1-c1ccccc1
- GI50 (BT-549): > 100 µM (inactive)
- GI50 (HL-60): > 100 µM (inactive)
- GI50 (MDA-MB-231): > 100 µM (inactive)
- GI50 (KM12): > 100 µM (inactive)
- GI50 (M14): > 100 µM (inactive)
- GI50 (EKVX): > 100 µM (inactive)
- GI50 (A498): > 100 µM (inactive)
- GI50 (LOX IMVI): > 100 µM (inactive)
- GI50 (HCT-116): > 100 µM (inactive)
- GI50 (OVCAR-5): > 100 µM (inactive)
- GI50 (SK-OV-3): > 100 µM (inactive)
- GI50 (HCT-15): > 100 µM
- GI50 (786-0): > 100 µM (inactive)
- GI50 (HOP-62): > 100 µM (inactive)
- GI50 (RXF 393): > 100 µM (inactive)
- GI50 (SF-295): > 100 µM (inactive)
- GI50 (NCI/ADR-RES): > 100 µM (inactive)
- GI50 (IGROV-1): > 100 µM (inactive)
- GI50 (UACC-257): > 100 µM (inactive)
- GI50 (CCRF-CEM): > 100 µM (inactive)
- GI50 (SNB-75): 4.7 µM (inactive)
- GI50 (MCF7): > 100 µM (inactive)
- GI50 (MDA-MB-435): > 100 µM (inactive)
- GI50 (MOLT-4): > 100 µM (inactive)
- GI50 (RPMI-8226): 79.8 µM (inactive)
- GI50 (NCI-H522): > 100 µM (inactive)
- GI50 (OVCAR-4): > 100 µM (inactive)
- GI50 (UACC-62): > 100 µM (inactive)
- GI50 (OVCAR-3): > 100 µM (inactive)
- GI50 (TK-10): > 100 µM (inactive)
- GI50 (SF-268): > 100 µM (inactive)
- GI50 (SW-620): > 100 µM (inactive)
- GI50 (NCI-H226): > 100 µM (inactive)
- GI50 (SNB-19): > 100 µM (inactive)
- GI50 (SK-MEL-2): > 100 µM (inactive)
- GI50 (PC-3): > 100 µM (inactive)
- GI50 (MDA-N): > 100 µM (inactive)
- GI50 (NCI-H23): > 100 µM (inactive)
- GI50 (NCI-H460): > 100 µM (inactive)
- GI50 (SR): > 100 µM (inactive)
- GI50 (SN12C): > 100 µM (inactive)
- GI50 (ACHN): > 100 µM (inactive)
- GI50 (Hs-578T): > 100 µM (inactive)
- GI50 (OVCAR-8): > 100 µM (inactive)
- GI50 (U-251): > 100 µM (inactive)
- GI50 (UO-31): 57.3 µM (inactive)
- GI50 (CAKI-1): > 100 µM (inactive)
- GI50 (Malme-3M): > 100 µM (inactive)
- GI50 (SK-MEL-5): > 100 µM (inactive)
- GI50 (HT-29): > 100 µM (inactive)
- GI50 (HOP-92): > 100 µM (inactive)
- GI50 (DU-145): > 100 µM (inactive)
- GI50 (HCC 2998): > 100 µM (inactive)
- GI50 (COLO 205): > 100 µM (inactive)
- GI50 (SK-MEL-28): > 100 µM (inactive)
- GI50 (SF-539): > 100 µM (inactive)
- GI50 (A549): > 100 µM (inactive)
- GI50 (K562): > 100 µM (inactive)
- GI50 (T47D): > 100 µM (inactive)

Structure (SMILES): CCOC(=O)C1CCn2c(nc3c2c(=O)n(C)c(=O)n3C)S1 (stereo unspecified)
- GI50 (HL-60): > 100 µM (inactive)
- GI50 (M14): > 100 µM (inactive)
- GI50 (EKVX): > 100 µM (inactive)
- GI50 (KM-20L2): > 100 µM (inactive)
- GI50 (LOX IMVI): > 100 µM (inactive)
- GI50 (HCT-116): > 100 µM (inactive)
- GI50 (OVCAR-5): > 100 µM (inactive)
- GI50 (SK-OV-3): > 100 µM (inactive)
- GI50 (HCT-15): > 100 µM
- GI50 (HOP-62): > 100 µM (inactive)
- GI50 (RXF 393): > 100 µM (inactive)
- GI50 (SNB-78): > 100 µM (inactive)
- GI50 (SF-295): > 100 µM (inactive)
- GI50 (IGROV-1): > 100 µM (inactive)
- GI50 (UACC-257): > 100 µM (inactive)
- GI50 (CCRF-CEM): > 100 µM (inactive)
- GI50 (SNB-75): > 100 µM (inactive)
- GI50 (HOP-18): > 100 µM (inactive)
- GI50 (MOLT-4): > 100 µM (inactive)
- GI50 (RPMI-8226): > 100 µM (inactive)
- GI50 (NCI-H522): > 100 µM (inactive)
- GI50 (OVCAR-4): > 100 µM (inactive)
- GI50 (UACC-62): > 100 µM (inactive)
- GI50 (OVCAR-3): > 100 µM (inactive)
- GI50 (TK-10): > 100 µM (inactive)
- GI50 (SF-268): > 100 µM (inactive)
- GI50 (SW-620): > 100 µM (inactive)
- GI50 (NCI-H226): > 100 µM (inactive)
- GI50 (SNB-19): > 100 µM (inactive)
- GI50 (SK-MEL-2): > 100 µM (inactive)
- GI50 (LXFL 529): > 100 µM (inactive)
- GI50 (NCI-H23): > 100 µM (inactive)
- GI50 (NCI-H460): > 100 µM (inactive)
- GI50 (SR): 77.1 µM (inactive)
- GI50 (SN12C): > 100 µM (inactive)
- GI50 (ACHN): > 100 µM (inactive)
- GI50 (OVCAR-8): > 100 µM (inactive)
- GI50 (U-251): > 100 µM (inactive)
- GI50 (CAKI-1): > 100 µM (inactive)
- GI50 (DMS-273): > 100 µM (inactive)
- GI50 (Malme-3M): > 100 µM (inactive)
- GI50 (SK-MEL-5): > 100 µM (inactive)
- GI50 (HT-29): > 100 µM (inactive)
- GI50 (DLD-1): > 100 µM (inactive)
- GI50 (SF-539): > 100 µM (inactive)
- GI50 (A549): > 100 µM (inactive)
- GI50 (K562): > 100 µM (inactive)
